# Read-outs that look alike come from different tables or passages of the source. Marks after values point to notes of the source that are not given here.
# How the values were obtained:
# Bcl-2 = Bcl-2 (Homo sapiens, UniProt P10415); experiment: TR FRET competitive binding affinity, Bcl-2; conditions: read-out: Target Affinity TR FRET, Bcl-2
# Procedure: (§1) A comparison of the binding affinity for each of the compounds was performed to determine target affinity, as measured by Time-Resolved Fluorescence Resonance Energy Transfer (TR FRET).
# FL5.12-Bcl-2 cells = experiment: Cellular efficacy in FL5.12 cells dependent on Bcl-2; type: cell-based, murine; conditions: Mus musculus, 3% FBS
# Bcl-XL = Bcl-XL (Homo sapiens, UniProt Q07817); experiment: TR FRET competitive binding affinity, Bcl-XL; conditions: read-out: Target Affinity TR FRET, Bcl-XL
# Procedure: as §1
# [1] = test system: spontaneous (NZB×NZW)F1 murine model of lupus; experiment: Spontaneous (NZB×NZW)F1 murine model of lupus: proteinuria, survival, lymphopenia; type: in vivo, (NZB×NZW)F1 mice
# Excerpt: (See Liu, K. and C. Mohan, What do mouse models teach us about human SLE? Clin Immunol, 2006. 119(2): p. 123-30) This model has been well-characterized with respect to the patho-physiological changes analogous to those of human SLE. […] Renal histopathological changes include severe glomerulonephritis, mesangial and peripheral proliferative changes, capillary membrane thickening, tubular atrophy, and infiltration of lymphocytes and monocytes/macrophages as in the majority of human SLE patients. These changes result in disruption of kidney function as evidenced by severe proteinuria (PU) greater than 300 mg/dL as measured by albumin sticks, followed by mortality as measured by survival. […] (See Gelfand, M. C. and A. D. Steinberg, Therapeutic studies in NZB-W mice. II. Relative efficacy of azathioprine, cyclophosphamide and methylprednisolone. Arthritis Rheum, 1972. 15(3): p. 247-52; and Ramos, M. A., et al., Modulation of autoantibody production by mycophenolate mofetil: effects on the development of SLE in (NZB×NZW)F1 mice. Nephrol Dial Transplant, 2003. 18(5): p. 878-83)
# (NZB×NZW)F1 females were purchased from The Jackson Laboratory (Bar Harbor, Me., USA) and maintained in a conventional animal housing facility throughout the experiment. […] Proteinuria (PU) and survival were monitored weekly, followed by biweekly measurement of lymphocyte and platelet counts, and anti-ds DNA production. PK parameters were also measured throughout the study. Impact on IgG deposition and renal pathology were assessed at the conclusion of the study. Severe PU was defined by two consecutive weekly measurements of PU 300 mg/dl using Albustix test strips (VWR). When mice became moribund, they were sacrificed according to Institutional Animal Care and Use Committee protocols. PU and survival data were presented as Kaplan-Meyer survival curves using Graphpad Prism software and group differences were considered significant at the level of p<0.05. Histologic scores were analyzed using ANOVA analysis. Anti-ds DNA were analyzed using one-way ANOVA analysis and Tukey post-test.
# FL5.12-Bcl-XL cells = experiment: Cellular efficacy in FL5.12 cells dependent on Bcl-XL; type: cell-based, murine; conditions: Mus musculus, 3% FBS
# RS4;11 cells = experiment: Cellular efficacy in Bcl-2 dependent tumor cell line RS4;11; type: cell-based, human; conditions: Homo sapiens, RS4-11; 10% HS
# H146 cells = experiment: Cellular efficacy in Bcl-XL dependent tumor cell line H146; type: cell-based; conditions: Homo sapiens, NCI-H146; 10% HS
# Bcl-w = target: T1, Bcl-w (Homo sapiens, UniProt Q92843); experiment: TR FRET competitive binding affinity, Bcl-w; conditions: read-out: Target Affinity TR FRET, Bcl-w
# T1 sequence (Q92843 1-193): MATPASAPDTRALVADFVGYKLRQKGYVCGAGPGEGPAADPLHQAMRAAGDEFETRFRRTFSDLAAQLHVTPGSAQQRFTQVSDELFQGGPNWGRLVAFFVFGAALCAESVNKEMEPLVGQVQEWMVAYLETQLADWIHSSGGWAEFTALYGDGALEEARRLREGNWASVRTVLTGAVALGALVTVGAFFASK
# Procedure: as §1
# Mcl-1 = Mcl-1 (Homo sapiens, UniProt Q07820); experiment: TR FRET competitive binding affinity, Mcl-1; conditions: read-out: Target Affinity TR FRET, Mcl-1
# Procedure: as §1
# [2] = test system: peripheral blood immune cells; experiment: Peripheral blood lymphocytes in C57BL/6 mice, Cell Dyn hematology analyzer; type: in vivo; conditions: for inhibition in vivo at 100 mg/kg: Mus musculus, Lymphocyte
# Procedure: The effect of the Bcl-2 selective/Bcl-XL sparing compounds on peripheral blood immune cells was also evaluated in C57BL/6 mice. Mice were treated four days with individual compounds (100 mg/kg, orally every day) and cell numbers were measured with a Cell Dyn hematology analyzer.
# Sequence of Bcl-2 (P10415 whole entry): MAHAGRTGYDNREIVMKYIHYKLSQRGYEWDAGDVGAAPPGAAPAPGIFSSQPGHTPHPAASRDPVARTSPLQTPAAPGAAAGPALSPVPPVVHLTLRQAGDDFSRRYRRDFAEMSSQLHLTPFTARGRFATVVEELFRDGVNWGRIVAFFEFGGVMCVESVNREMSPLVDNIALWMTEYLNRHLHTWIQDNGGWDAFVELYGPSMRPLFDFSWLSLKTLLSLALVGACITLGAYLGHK
# Sequence of Mcl-1 (Q07820 whole entry): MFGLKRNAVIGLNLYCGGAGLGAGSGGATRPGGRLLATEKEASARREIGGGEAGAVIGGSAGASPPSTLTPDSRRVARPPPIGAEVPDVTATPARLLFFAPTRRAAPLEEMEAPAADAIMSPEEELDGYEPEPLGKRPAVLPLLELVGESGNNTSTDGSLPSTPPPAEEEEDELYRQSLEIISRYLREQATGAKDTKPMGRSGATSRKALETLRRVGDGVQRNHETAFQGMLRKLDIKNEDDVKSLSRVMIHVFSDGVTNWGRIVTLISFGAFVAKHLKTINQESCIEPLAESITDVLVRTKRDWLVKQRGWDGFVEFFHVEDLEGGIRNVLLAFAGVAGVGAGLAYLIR
# Sequence of Bcl-XL (Q07817 whole entry): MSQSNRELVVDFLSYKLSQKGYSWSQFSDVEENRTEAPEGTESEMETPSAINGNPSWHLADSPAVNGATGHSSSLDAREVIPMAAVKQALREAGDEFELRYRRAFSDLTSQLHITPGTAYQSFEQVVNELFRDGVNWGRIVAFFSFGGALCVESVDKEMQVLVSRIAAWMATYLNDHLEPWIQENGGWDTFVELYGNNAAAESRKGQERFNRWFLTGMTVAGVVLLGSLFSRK
compound,measurement,setting,value
"CC1(C)CCC(CN2CCN(c3ccc(C(=O)NS(=O)(=O)c4ccc(N[C@H]5CC[C@H](N6CCOCC6)CC5)c([N+](=O)[O-])c4)c(Oc4cnc(N)c(Cl)c4)c3)CC2)=C(c2ccc(Cl)cc2)C1 [Compound 17, Trans-2-[(6-amino-5-chloropyridin-3-yl)oxy]-4-(4-{[2-(4-chlorophenyl)-4,4-dimethylcyclohex-1-en-1-yl]methyl}piperazin-1-yl)-N-({4-[(4-morpholin-4-ylcyclohexyl)amino]-3-nitrophenyl}sulfonyl)benzamide]",Ki,Bcl-2,< 0.01 nM
same,EC50,FL5.12-Bcl-2 cells,4 nM
same,Ki,Bcl-XL,12 nM
same,% Mice with PU < 300 mg/dL,"[1]; Week 39, 1 mg/kg daily oral",58%
same,% Survival,"[1]; Week 39, 1 mg/kg daily oral",67%
same,% Mice with PU < 300 mg/dL,"[1]; Week 39, 3 mg/kg daily oral",67%
same,% Survival,"[1]; Week 39, 3 mg/kg daily oral",92%
same,% Mice with PU < 300 mg/dL,"[1]; Week 39, 10 mg/kg daily oral",71%
same,% Survival,"[1]; Week 39, 10 mg/kg daily oral",93%
same,% Mice with PU < 300 mg/dL,"[1]; Week 39, 30 mg/kg daily oral",86%
same,% Survival,"[1]; Week 39, 30 mg/kg daily oral",100%
same,% Mice with PU < 300 mg/dL,"[1]; Week 39, 100 mg/kg daily oral",100* %
same,% Survival,"[1]; Week 39, 100 mg/kg daily oral",100%
same,EC50,FL5.12-Bcl-XL cells,65 nM
same,EC50,RS4;11 cells,17 nM
same,EC50,H146 cells,3.24 µM
same,Ki,Bcl-w,357 nM
same,Ki,Mcl-1,> 440 nM
same,Day 1 Lymphocytes,[2]; 1 oral dose of 100 mg/kg,1.84 ×10^6
same,Day 4 lymphocytes,[2]; 4 oral doses of 100 mg/kg,1.30 ×10^6
same,inhibition in vivo at 100 mg/kg,"[2]; 24 h, 1 oral dose of 100 mg/kg, read-out: Day 1 % Reduction vs. Vehicle",77%
same,inhibition in vivo at 100 mg/kg,"[2]; 96 h, 4 oral doses of 100 mg/kg, read-out: Day 4 % Reduction vs. Vehicle",83%
